Source: the supplement of paper PMC6045584
± gives the standard deviation of the averaged measurements.

What was measured:
ERLOTINIB = compound: C#Cc1cccc(Nc2ncnc3cc(OCCOC)c(OCCOC)cc23)c1 [ERLOTINIB]; assay: surviving fraction relative to DMSO-only wells; higher = less growth inhibition; settings: exposure time: 5 days
Method in brief: (§1)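 Viability was determined by CellTiter-Glo luminescence, expressed as surviving fraction normalised to the median of DMSO-only wells. The cells were log-phase tumour cell lines seeded at 250–500 per well in 384-well plates and, after 24 hours, exposed continuously for five days to inhibitors at 0.5, 1, 5, 10, 50, 100, 500 and 1000 nM. Three screens per line were run, keeping only lines with replicate Pearson r >0.7 and median Z' >0.3.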

ETOPOSIDE = compound: COc1cc([C@@H]2c3cc4c(cc3[C@@H](O[C@@H]3O[C@@H]5CO[C@@H](C)O[C@H]5[C@H](O)[C@H]3O)[C@H]3COC(=O)[C@H]23)OCO4)cc(OC)c1O [ETOPOSIDE]; assay: as above; settings: exposure time: 5 days
Method in brief: as §1

| Test System | surviving fraction (ERLOTINIB; 0.5 nM) | surviving fraction (ERLOTINIB; 1 nM) | surviving fraction (ERLOTINIB; 5 nM) | surviving fraction (ERLOTINIB; 10 nM) | surviving fraction (ERLOTINIB; 50 nM) | surviving fraction (ERLOTINIB; 100 nM) | surviving fraction (ERLOTINIB; 500 nM) | surviving fraction (ERLOTINIB; 1000 nM) | surviving fraction (ETOPOSIDE; 0.5 nM) | surviving fraction (ETOPOSIDE; 1 nM) | surviving fraction (ETOPOSIDE; 5 nM) | surviving fraction (ETOPOSIDE; 10 nM) | surviving fraction (ETOPOSIDE; 50 nM) | surviving fraction (ETOPOSIDE; 100 nM) | surviving fraction (ETOPOSIDE; 500 nM) | surviving fraction (ETOPOSIDE; 1000 nM) |
| --- | --- | --- | --- | --- | --- | --- | --- | --- | --- | --- | --- | --- | --- | --- | --- | --- |
| SG27 HEADNECK | 1 ± 0.036 | 0.979 ± 0.051 | 1.08 ± 0.062 | 1.06 ± 0.16 | 1.2 ± 0.082 | 1.1 ± 0.052 | 1.1 ± 0.037 | 1.1 ± 0.065 | 1.12 ± 0.081 | 1.05 ± 0.11 | 0.975 ± 0.12 | 1.05 ± 0.14 | 1.08 ± 0.15 | 1.04 ± 0.037 | 1.09 ± 0.14 | 0.985 ± 0.14 |
| SG28 HEADNECK | 1.2 ± 0.12 | 1.1 ± 0.021 | 1.13 ± 0.07 |  |  | 1.097 ± 0.0071 | 0.546 ± 0.052 | 1.23 ± 0.1 | 1.18 ± 0.046 | 1.19 ± 0.063 | 1.13 ± 0.075 | 1.15 ± 0.044 | 1.07 ± 0.2 | 1.09 ± 0.093 | 1.05 ± 0.029 | 0.969 ± 0.11 |
| SG31 HEADNECK | 1.29 ± 0.38 | 1.29 ± 0.13 | 1.03 ± 0.11 | 0.863 ± 0.092 | 1.08 ± 0.18 | 0.762 ± 0.059 | 0.716 ± 0.2 | 0.667 ± 0.21 | 1.05 ± 0.092 | 1.06 ± 0.04 | 1.1 ± 0.11 | 1.13 ± 0.14 | 0.946 ± 0.11 | 0.969 ± 0.11 | 0.856 ± 0.087 | 0.837 ± 0.058 |
| SG32 HEADNECK | 1.14 ± 0.11 | 1.11 ± 0.092 | 1.1 ± 0.29 | 1.03 ± 0.18 | 1.12 ± 0.14 | 1.11 ± 0.092 | 0.795 ± 0.067 | 1.26 ± 0.28 | 1.23 ± 0.076 | 1.3 ± 0.13 | 1.37 ± 0.11 | 1.2 ± 0.17 | 1.1 ± 0.098 | 1 ± 0.14 | 0.726 ± 0.042 | 0.608 ± 0.11 |
| SG43 HEADNECK | 1.06 ± 0.2 | 0.978 ± 0.049 | 0.882 ± 0.18 | 0.734 ± 0.17 | 0.689 ± 0.13 | 0.458 ± 0.16 | 0.265 ± 0.032 | 0.335 ± 0.097 | 1.02 ± 0.13 | 1.02 ± 0.21 | 0.933 ± 0.24 | 0.832 ± 0.23 | 0.876 ± 0.031 | 0.645 ± 0.11 | 0.894 ± 0.07 | 0.644 ± 0.064 |
| SIHA CERVIX | 1.1 ± 0.05 | 1.075 ± 0.0096 | 1.12 ± 0.074 |  | 1.1 ± 0.067 | 1.08 ± 0.099 |  | 1.06 ± 0.038 | 1.07 ± 0.041 | 1.036 ± 0.0067 | 1.08 ± 0.12 | 1.11 ± 0.069 | 1.12 ± 0.049 | 1.16 ± 0.11 | 0.863 ± 0.058 | 0.684 ± 0.018 |
| SJSA1 BONE | 1.69 ± 0.11 | 0.267 ± 0.022 | 1.55 ± 0.035 | 0.189 ± 0.0056 | 1.02 ± 0.032 | 1.76 ± 0.13 | 1.75 ± 0.1 |  | 1.04 ± 0.022 | 1.04 ± 0.058 | 1.06 ± 0.036 | 1.01 ± 0.024 | 1.05 ± 0.03 | 1.02 ± 0.076 | 0.71 ± 0.0095 | 0.503 ± 0.0085 |
| SKBR3 BREAST | 1.11 ± 0.13 | 1.1 ± 0.15 | 1.07 ± 0.15 | 1.15 ± 0.1 | 1.11 ± 0.024 | 1.05 ± 0.08 | 1.04 ± 0.15 | 0.874 ± 0.06 | 1.07 ± 0.027 | 1.06 ± 0.099 | 1.1 ± 0.15 | 1.03 ± 0.12 | 1.12 ± 0.11 | 1.05 ± 0.084 | 0.66 ± 0.068 | 0.478 ± 0.12 |
| SNU475 LIVER | 1.01 ± 0.03 |  | 0.974 ± 0.064 | 0.982 ± 0.044 | 0.957 ± 0.03 | 1 ± 0.047 | 0.909 ± 0.012 | 0.88 ± 0.057 | 1.02 ± 0.05 | 0.999 ± 0.11 | 1 ± 0.039 | 1.03 ± 0.042 | 0.9937 ± 0.0049 | 0.957 ± 0.066 | 0.835 ± 0.042 | 0.571 ± 0.062 |
| SUM44 BREAST | 1.31 ± 0.45 | 1.19 ± 0.29 | 1.28 ± 0.4 | 1.21 ± 0.26 | 1.34 ± 0.49 | 1.32 ± 0.36 | 1.39 ± 0.53 | 1.29 ± 0.38 | 1.03 ± 0.026 | 1.05 ± 0.034 | 1.05 ± 0.046 | 1.06 ± 0.027 | 1.09 ± 0.043 | 1.11 ± 0.062 | 0.928 ± 0.082 | 0.913 ± 0.036 |
| SUM149 BREAST | 1.1 ± 0.12 | 1.11 ± 0.12 | 1.01 ± 0.13 | 0.966 ± 0.082 | 0.922 ± 0.13 | 0.75 ± 0.03 | 0.454 ± 0.042 | 0.434 ± 0.033 | 1.16 ± 0.04 | 1.17 ± 0.061 | 1.21 ± 0.048 | 1.13 ± 0.077 | 0.753 ± 0.044 | 0.563 ± 0.025 | 0.156 ± 0.0049 | 0.153 ± 0.0044 |
| SUM149.B1*.S BREAST | 1.11 ± 0.071 | 1.12 ± 0.021 | 1.09 ± 0.065 | 1.09 ± 0.017 | 1.15 ± 0.048 | 1.08 ± 0.013 | 1.07 ± 0.069 | 1.08 ± 0.079 | 1.1 ± 0.042 | 1.1 ± 0.053 | 1.11 ± 0.017 | 1.12 ± 0.07 | 1.08 ± 0.03 | 1.043 ± 0.0053 | 0.445 ± 0.0065 | 0.343 ± 0.013 |
| SUM159 BREAST | 1.11 ± 0.039 | 1.1 ± 0.033 | 1.09 ± 0.023 | 1.07 ± 0.024 | 1.07 ± 0.013 | 1.05 ± 0.015 | 1.07 ± 0.012 | 1.06 ± 0.016 | 1.14 ± 0.18 | 1.08 ± 0.08 | 1.1 ± 0.11 | 1.07 ± 0.058 | 1.06 ± 0.055 | 0.977 ± 0.079 | 0.364 ± 0.086 | 0.187 ± 0.027 |
| SYO1 SYNOVIAL | 1.02 ± 0.016 | 1.04 ± 0.034 | 1.03 ± 0.017 | 0.986 ± 0.067 | 1.01 ± 0.023 | 1.01 ± 0.015 | 1.02 ± 0.028 |  | 0.994 ± 0.042 | 0.997 ± 0.059 | 0.975 ± 0.027 | 0.933 ± 0.023 | 0.7 ± 0.044 | 0.505 ± 0.051 | 0.106 ± 0.024 | 0.0784 ± 0.014 |
| T47D BREAST | 1.13 ± 0.059 | 1.08 ± 0.052 | 1.13 ± 0.084 | 1.09 ± 0.028 | 1.18 ± 0.039 | 1.17 ± 0.048 | 1.16 ± 0.084 | 1.12 ± 0.039 | 1.06 ± 0.042 | 1.04 ± 0.03 | 1.07 ± 0.09 | 1.02 ± 0.021 | 1.03 ± 0.047 | 0.96 ± 0.068 | 0.525 ± 0.036 | 0.46 ± 0.023 |
| U2OS BONE | 1.06 ± 0.016 |  |  |  | 1.11 ± 0.015 | 1.04 ± 0.028 | 1.02 ± 0.014 |  | 1.03 ± 0.034 | 1.02 ± 0.062 | 1.05 ± 0.025 | 1.047 ± 0.009 | 1.022 ± 0.0045 | 0.867 ± 0.057 | 0.56 ± 0.026 | 0.546 ± 0.021 |
